Where two headings read alike, the source gives them in different places.
How the values were obtained:
[1] = system: RAN translation of (G4C2)66-No ATG-GFP in HEK293T cells; assay: Cell-based assay of RAN translation inhibition (GFP/mCherry reporter); conditions: Homo sapiens, HEK-293T; for IC50: read-out: RANT IC50; for IC25: 24 h, read-out: RANT IC25
[2] = biological target: Biotin-labeled RNA (target RNA); assay: BLI affinity measurement (ForteBio Octet RED384); assay type: binding; conditions: Table G
[3] = biological target: biotinylated r(G4C2)8 RNA and hnRNP H1-His6; assay: TR-FRET hnRNP H binding assay
In short: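 Biotinylated r(G4C2)8 RNA (80 nM), heat-folded at 95 °C then slowly cooled, was preincubated 15 min with compound before hnRNP H1-His6 (75 nM) was added. After 15 min, streptavidin-XL665 (40 nM) and anti-His6-Tb (0.44 ng/μL) were added and TR-FRET was read after 1 h. IC50 was obtained by curve fitting.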

[4] = Table F, HEK293T, 24 h treatment
[5] = Table D, HEK293T, 24 h treatment

SMILES | IC50 ([1]; Table G, HEK293T) [µM] | Kd [2] [µM] | further results
COCC(C)(C)NC(=O)c1ccc2c(c1)c1cc3cnccc3c(C)c1n2C [Compound 302, N-(1-methoxy-2-methylpropan-2-yl)-5,6-dimethyl-6H-pyrido[4,3-b]carbazole-9-carb-oxamide] | 9.1 | 8.2 | 
Cc1c2ccncc2cc2c3cc(C(=O)NC[C@H](C)O)ccc3n(C)c12 [Compound 287, N-[(2S)-2-hydroxypropyl]-5,6-dimethyl-pyrido[4,3-b]carbazole-9-carboxamide] | 1.4 | 1.5 | 
CNCCOc1ccc2c(c1)c1cc3cnccc3c(C)c1n2C [Compound 321, 2-((5,6-dimethyl-6H-pyrido[4,3-b]carbazol-9-yl)oxy)-N-methylethanamine] | 3.5 | 0.71 | 
Cc1c2ccncc2cc2c3cc(C(=O)NCC(N)=O)ccc3n(C)c12 [Compound 296, N-(2-amino-2-oxoethyl)-5,6-dimethyl-6H-pyrido[4,3-b]carbazole-9-carboxamide] | 3 | 5.3 | 
Cc1c2ccncc2cc2c3cc(C(=O)NC[C@@H](C)N(C)C)ccc3n(C)c12 [Compound 294, N-[(2R)-2-(dimethylamino)propyl]-5,6-dimethyl-pyrido[4,3-b]carbazole-9-carboxamide] | 13 | 0.3 | 
Cc1c2ccncc2cc2c3cc(C(=O)NC[C@H](C)N(C)C)ccc3n(C)c12 [Compound 300, (S)—N-(2-(dimethylamino)propyl)-5,6-dimethyl-6H-pyrido[4,3-b]carbazole-9-carboxamide] | 8.6 | 0.35 | 
Cc1c2ccncc2cc2c3cc(C(=O)NC[C@@H](C)N)ccc3n(C)c12 [Compound 284, (R)—N-(2-aminopropyl)-5,6-dimethyl-6H-pyrido[4,3-b]carbazole-9-carboxamide] | 1.8 | 0.35 | 
COC[C@H](C)NC(=O)c1ccc2c(c1)c1cc3cnccc3c(C)c1n2C [Compound 288, (S)—N-(1-methoxypropan-2-yl)-5,6-dimethyl-6H-pyrido[4,3-b]carbazole-9-carboxamide] | 2 | 9.6 | 
Cc1c2ccnc(C(=O)N[C@H](C)CN(C)C)c2cc2c3cc(OC[C@H](C)N)ccc3n(C)c12 [Compound 271, 9-[(2S)-2-aminopropoxy]-N-[(1R)-2-(dimethylamino)-1-methyl-ethyl]-5,6-dimethyl-pyrido[4,3-b]carbazole-1-carboxamide] | > 100 | 0.13 | 
Cc1c2ccncc2cc2c3cc(Oc4ccncc4)ccc3n(C)c12 [Compound 306, 5,6-dimethyl-9-(pyridin-4-yloxy)-6H-pyrido[4,3-b]carbazole] | 14 | 1.2 | 
Cc1c2ccnc(C(=O)NCC(N)=O)c2cc2c3ccccc3n(C)c12 [Compound 290, N-(2-amino-2-oxoethyl)-5,6-dimethyl-6H-pyrido[4,3-b]carbazole-1-carboxamide] | 8.3 | > 20 | 
Cc1c2ccncc2cc2c3cc(OCC[C@@H](C)N)ccc3n(C)c12 [Compound 267, (R)-4-((5,6-dimethyl-6H-pyrido[4,3-b]carbazol-9-yl)oxy)butan-2-amine] | > 21 | 8 | 
Cc1c2ccnc(C(=O)N[C@H](C)CN(C)C)c2cc2c3ccccc3n(C)c12 [Compound 292, (R)—N-(1-(dimethylamino)propan-2-yl)-5,6-dimethyl-6H-pyrido[4,3-b]carbazole-1-carboxamide] |  | 5.5 | IC50 [1]: 13 µM
Cc1c2ccncc2cc2c1[nH]c1ccc(OCCN)cc12 [Compound 263, 2-[(5-methyl-6H-pyrido[4,3-b]carbazol-9-yl)oxy]ethanamine] | > 100 | 0.61 | 
Cc1c2ccncc2cc2c3cc(OCC[C@H](C)N)ccc3n(C)c12 [Compound 268, (S)-4-((5,6-dimethyl-6H-pyrido[4,3-b]carbazol-9-yl)oxy)butan-2-amine] | 2.9 | 8.7 | 
c1cc2cc3[nH]c4ccc(OCC5=NCCN5)cc4c3cc2cn1 [Compound 262, 9-((4,5-dihydro-1H-imidazol-2-yl)methoxy)-6H-pyrido[4,3-b]carbazole] | 6.6 | 5.2 | 
Cc1c2ccncc2cc2c3cc(OCC(N)=O)cc(F)c3n(C)c12 [Compound 264, 2-(7-fluoro-5,6-dimethyl-pyrido[4,3-b]carbazol-9-yl)oxyacetamide] | > 100 | 0.18 | 
Cc1c2ccncc2cc2c3cc(Oc4cccc(N)n4)ccc3n(C)c12 [Compound 304, 6-((5,6-dimethyl-6H-pyrido[4,3-b]carbazol-9-yl)oxy)pyridin-2-amine] | 5.9 | 1.4 | 
Cc1c2ccnc(C(=O)NCCN)c2cc2c3cc(F)c(F)cc3n(C)c12 [Compound 309, N-(2-aminoethyl)-8,9-difluoro-5,6-dimethyl-6H-pyrido[4,3-b]carbazole-1-carboxamide] | 41 | 1.4 | 

SMILES | IC50 ([1]; Table G, HEK293T) [µM] | Kd [2] [µM] | further results
Cc1c2ccncc2cc2c3cc(Oc4ccnc(N)c4)ccc3n(C)c12 [Compound 303, 4-((5,6-dimethyl-6H-pyrido[4,3-b]carbazol-9-yl)oxy)pyridin-2-amine] | > 100 | 0.18 | 
Cc1c2ccncc2cc2c3ccccc3n(CCN3CCCCC3)c12 [Compound 318, 5-methyl-6-(2-(piperidin-1-yl)ethyl)-6H-pyrido[4,3-b]carbazole] |  | 6 | IC50 [1]: 16 µM
Cc1c2ccncc2cc2c3cc(C(=O)N[C@H](C)CN(C)C)ccc3n(C)c12 [Compound 286, N-[(1R)-2-(dimethylamino)-1-methyl-ethyl]-5,6-dimethyl-pyrido[4,3-b]carbazole-9-carboxamide] | 10 | 2.6 | 
Cc1c2ccncc2cc2c3cc(OC[C@H](C)NC(C)C)ccc3n(C)c12 [Compound 283, (S)-1-((5,6-dimethyl-6H-pyrido[4,3-b]carbazol-9-yl)oxy)-N-isopropylpropan-2-amine] | 2.4 | 0.09 | 
Cc1c2ccncc2cc2c3cc(Oc4ccc(N)nc4)ccc3n(C)c12 [Compound 314, 5-((5,6-dimethyl-6H-pyrido[4,3-b]carbazol-9-yl)oxy)pyridine-2-amine] | > 60 | 3 | 
Cc1c2ccncc2cc2c3cc(C(=O)N[C@@H](C)C(N)=O)ccc3n(C)c12 [Compound 297, (S)—N-(1-amino-1-oxopropan-2-yl)-5,6-dimethyl-6H-pyrido[4,3-b]carbazole-9-carboxamide] | 2.9 | 2.7 | 
Cc1c2ccncc2cc2c3cc(C(=O)N[C@@H](C)CN(C)C)ccc3n(C)c12 [Compound 295, N-[(1S)-2-(dimethylamino)-1-methyl-ethyl]-5,6-dimethyl-pyrido[4,3-b]carbazole-9-carboxamide] | 41 | 0.35 | 
CN[C@@H](C)COc1ccc2c(c1)c1cc3cnccc3c(C)c1n2C [Compound 276, (S)-1-((5,6-dimethyl-6H-pyrido[4,3-b]carbazol-9-yl)oxy)-N-methylpropan-2-amine] | 12 | 0.041 | 
Cc1c2ccncc2cc2c3cc(C(=O)NCCO)ccc3n(C)c12 [Compound 214, N-(2-hydroxyethyl)-5,6-dimethyl-6H-pyrido[4,3-b]carbazole-9-carboxamide] |  |  | Ki ([3]; Table F): 3.6 µM; IC25 [1, 4]: 1 µM
Cc1c2ccncc2cc2c3cc(C(=O)NCCN4CCCCC4)ccc3n(C)c12 [Example 77, 5,6-dimethyl-N-(2-(piperidin-1-yl)ethyl)-6H-pyrido[4,3-b]carbazole-9-carboxamide] |  |  | Ki ([3]; Table D): 1.2 µM; IC25 [1, 5]: 1.7 µM
COc1ccc2c(c1)c1cc3cnccc3c(C)c1n2C [Compound 1, 9-methoxy-5,6-dimethyl-6H-pyrido[4,3-b]carbazole] |  |  | Ki ([3]; Table D): > 200 µM; IC25 [1, 5]: > 5 µM
Cc1c2ccncc2cc2c3cc(OC[C@@H]4CCCN4C)ccc3n(C)c12 [Example 37, (S)-5,6-dimethyl-9-((1-methylpyrrolidin-2-yl)methoxy)-6H-pyrido[4,3-b]carbazole] |  |  | Ki ([3]; Table D): 0.84 µM; IC25 [1, 5]: 2.3 µM
Cc1c2ccncc2cc2c3cc(OC[C@H](C)N)ccc3n(C)c12 [Compound 218, (S)-1-((5,6-dimethyl-6H-pyrido[4,3-b]carbazol-9-yl)oxy)propan-2-amine] |  |  | Ki ([3]; Table F): 0.8 µM; IC25 [1, 4]: 0.84 µM
CCc1nccc2c(C)c3c(cc12)c1cc(OC)ccc1n3C [Example 80a, 1-ethyl-9-methoxy-5,6-dimethyl-6H-pyrido[4,3-b]carbazole] |  |  | Ki ([3]; Table D): 30 µM; IC25 [1, 5]: > 5 µM
Cc1c2ccncc2cc2c3cc(N4CCNC5(CC5)C4)ccc3n(C)c12 [Compound 246, 5,6-dimethyl-9-(4,7-diazaspiro[2.5]octan-7-yl)-6H-pyrido[4,3-b]carbazole] |  |  | Ki ([3]; Table F): 1.6 µM; IC25 [1, 4]: > 5 µM
Cc1c2ccncc2cc2c3cc(OCC4=NCCN4)ccc3n(CC(C)(C)C)c12 [Compound 252, 9-((4,5-dihydro-1H-imidazol-2-yl)methoxy)-5-methyl-6-neopentyl-6H-pyrido[4,3-b]carbazole] |  |  | Ki ([3]; Table F): > 200 µM; IC25 [1, 4]: > 5 µM
Cc1c2ccncc2cc2c3cc(OCC(=O)N4CCN(C)CC4)ccc3n(C)c12 [Example 60, 2-((5,6-dimethyl-6H-pyrido[4,3-b]carbazol-9-yl)oxy)-1-(4-methylpiperazin-1-yl)ethanone] |  |  | Ki ([3]; Table D): 3.8 µM; IC25 [1, 5]: > 5 µM
Cc1c2ccncc2cc2c1oc1ccc(OCCN(C)C)cc12 [Compound 236, N,N-dimethyl-2-((5-methylbenzofuro[2,3-g]isoquinolin-9-yl)oxy)ethanamine] |  |  | Ki ([3]; Table F): 14 µM; IC25 [1]: > 5 µM
